Experiment [1] relates to a variety of test species. The experiment can be described thus: Pre-emergence herbicidal activity (Example 8a, Table 2). Also noted: key: 0 = no damage to plant, 5 = total damage to plant. The format is in vivo. The conditions noted are these: application pre-emergence, rate 1000 g/ha, evaluated after 13 days. Put shortly:
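Pre-emergence spray, one day post-sowing; vehicle acetone/water (50:50) + 0.5% Tween 20, aqueous dilution. Glasshouse 24/16 °C, 14 h light, 65% RH, watering twice daily. Score at 13 d on 0–5 scale, 5 = total damage.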

The subject of experiment [2] is a variety of test species. Kind of experiment: Post-emergence herbicidal activity (Example 8b, Table 3). The format is in vivo. The conditions noted are these: application post-emergence, rate 1000 g/ha, evaluated after 13 days, scale 0-5; for Herbicidal damage score, ABUTH: Abutilon theophrasti; for Herbicidal damage score, ALOMY: Alopecurus myosuroides; for Herbicidal damage score, AMARE: Amaranthus retroflexus; for Herbicidal damage score, ECHCG: Echinochloa crus-galli; for Herbicidal damage score, SETFA: Setaria faberi; for Herbicidal damage score, ZEAMX: Zea mays. The gist of the method: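 Pot-grown plants, 8 days after sowing, were sprayed with compound formulated in acetone/water (50:50) with 0.5% Tween 20. Glasshouse conditions 24/16° C day/night, 14 h light, 65% humidity; damage scored after 13 days on a 0 (none) to 5 (total) scale.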

With `CC1=C(Cl)C(=O)N(c2cc3n(n2)CCS(=O)(=O)C3(C)C)C1O` (stereo not drawn) [Compound G11], in experiment [1], the “Pre-emergence herbicidal activity, damage score ABUTH” value came to 5; the “Pre-emergence herbicidal activity, damage score ALOMY” value came out at 4; the “Pre-emergence herbicidal activity, damage score AMARE” value turned out to be 5; the “Pre-emergence herbicidal activity, damage score ECHCG” value is listed as 5. Besides, in experiment [1], the “Pre-emergence herbicidal activity, damage score SETFA” value turned out to be 5 and the “Pre-emergence herbicidal activity, damage score ZEAMX” value was determined as 4. In experiment [2], the “Herbicidal damage score, ABUTH” value stood at 5; the “Herbicidal damage score, ALOMY” value is given as 5; the “Herbicidal damage score, AMARE” value came to 5; the “Herbicidal damage score, ECHCG” value was 5. Also, in experiment [2], the “Herbicidal damage score, SETFA” value is listed as 5 and the “Herbicidal damage score, ZEAMX” value is listed as 3.

Take `COC1=C(Br)C(=O)N(c2nn(C)c(C(C)(C)C)c2Br)C1O` (stereo not drawn) [Compound O1]: in experiment [1], the “Pre-emergence herbicidal activity, damage score ABUTH” value was 0; the “Pre-emergence herbicidal activity, damage score ALOMY” value is reported as 0; the “Pre-emergence herbicidal activity, damage score AMARE” value came out at 0; the “Pre-emergence herbicidal activity, damage score ECHCG” value stood at 0. For the same molecule, in experiment [1], the “Pre-emergence herbicidal activity, damage score SETFA” value was 0 and the “Pre-emergence herbicidal activity, damage score ZEAMX” value stood at 0. Further, in experiment [2], the “Herbicidal damage score, ABUTH” value was 0; the “Herbicidal damage score, ALOMY” value is listed as 0; the “Herbicidal damage score, AMARE” value was 0; the “Herbicidal damage score, ECHCG” value was found to be 0. Also, in experiment [2], the “Herbicidal damage score, SETFA” value was determined as 0 and the “Herbicidal damage score, ZEAMX” value is given as 0.

Consider `CC1=C(Cl)C(=O)N(c2cc(C3=CCC(C)(C)CC3)n(C)n2)C1O` (stereo not drawn) [Compound B12], for which, in experiment [1], the “Pre-emergence herbicidal activity, damage score ABUTH” value was 4; the “Pre-emergence herbicidal activity, damage score ALOMY” value was determined as 0; the “Pre-emergence herbicidal activity, damage score AMARE” value was 1; the “Pre-emergence herbicidal activity, damage score ECHCG” value is listed as 0. In experiment [1], the “Pre-emergence herbicidal activity, damage score SETFA” value is recorded as 2 and the “Pre-emergence herbicidal activity, damage score ZEAMX” value came out at 1. Besides, in experiment [2], the “Herbicidal damage score, ABUTH” value was determined as 1; the “Herbicidal damage score, ALOMY” value was found to be 1; the “Herbicidal damage score, AMARE” value amounted to 2; the “Herbicidal damage score, ECHCG” value amounted to 1. Also, in experiment [2], the “Herbicidal damage score, SETFA” value is reported as 1 and the “Herbicidal damage score, ZEAMX” value is on record as 1.

As to `CC1=C(Cl)C(=O)N(c2cc3n(n2)CC[S+]([O-])C3(C)C)C1O` (mixture of isomers) [Compound G12], in experiment [1], the “Pre-emergence herbicidal activity, damage score ABUTH” value was 4; the “Pre-emergence herbicidal activity, damage score ALOMY” value amounted to 3; the “Pre-emergence herbicidal activity, damage score AMARE” value turned out to be 4; the “Pre-emergence herbicidal activity, damage score ECHCG” value was 4. For the same molecule, in experiment [1], the “Pre-emergence herbicidal activity, damage score SETFA” value was 3 and the “Pre-emergence herbicidal activity, damage score ZEAMX” value is on record as 3. In experiment [2], the “Herbicidal damage score, ABUTH” value worked out at 4; the “Herbicidal damage score, ALOMY” value is 3; the “Herbicidal damage score, AMARE” value is listed as 4; the “Herbicidal damage score, ECHCG” value turned out to be 4. Moreover, in experiment [2], the “Herbicidal damage score, SETFA” value is 3 and the “Herbicidal damage score, ZEAMX” value was determined as 1.

In the case of `CC1=C(Cl)C(=O)N(c2cc(C)n(C)n2)C1O` (stereo not drawn) [Compound B1], in experiment [1], the “Pre-emergence herbicidal activity, damage score ABUTH” value stood at 5; the “Pre-emergence herbicidal activity, damage score ALOMY” value is 3; the “Pre-emergence herbicidal activity, damage score AMARE” value was 5; the “Pre-emergence herbicidal activity, damage score ECHCG” value is 4. Moreover, in experiment [1], the “Pre-emergence herbicidal activity, damage score SETFA” value worked out at 4 and the “Pre-emergence herbicidal activity, damage score ZEAMX” value came to 3. For the same molecule, in experiment [2], the “Herbicidal damage score, ABUTH” value is on record as 5; the “Herbicidal damage score, ALOMY” value is recorded as 4; the “Herbicidal damage score, AMARE” value is on record as 5; the “Herbicidal damage score, ECHCG” value is recorded as 5. Moreover, in experiment [2], the “Herbicidal damage score, SETFA” value amounted to 5 and the “Herbicidal damage score, ZEAMX” value was found to be 5.

`CC1=C(Cl)C(=O)N(c2cc(C#CC(C)C)n(C)n2)C1O` (stereo not drawn) [Compound B29]: in experiment [1], the “Pre-emergence herbicidal activity, damage score ABUTH” value was 0; the “Pre-emergence herbicidal activity, damage score ALOMY” value is recorded as 0; the “Pre-emergence herbicidal activity, damage score AMARE” value is 2; the “Pre-emergence herbicidal activity, damage score ECHCG” value was found to be 0. Moreover, in experiment [1], the “Pre-emergence herbicidal activity, damage score SETFA” value was 0 and the “Pre-emergence herbicidal activity, damage score ZEAMX” value amounted to 0. In experiment [2], the “Herbicidal damage score, ABUTH” value turned out to be 0; the “Herbicidal damage score, ALOMY” value came to 0; the “Herbicidal damage score, AMARE” value amounted to 0; the “Herbicidal damage score, ECHCG” value is 2. In addition, in experiment [2], the “Herbicidal damage score, SETFA” value turned out to be 2 and the “Herbicidal damage score, ZEAMX” value worked out at 0.

As for `CC1=C(Cl)C(=O)N(c2cc(C)[nH]n2)C1O` (stereo not drawn) [Compound A5], in experiment [1], the “Pre-emergence herbicidal activity, damage score ABUTH” value stood at 5; the “Pre-emergence herbicidal activity, damage score ALOMY” value came to 3; the “Pre-emergence herbicidal activity, damage score AMARE” value is 5; the “Pre-emergence herbicidal activity, damage score ECHCG” value turned out to be 5. Moreover, in experiment [1], the “Pre-emergence herbicidal activity, damage score SETFA” value is given as 4 and the “Pre-emergence herbicidal activity, damage score ZEAMX” value is recorded as 2. In experiment [2], the “Herbicidal damage score, ABUTH” value amounted to 5; the “Herbicidal damage score, ALOMY” value is reported as 4; the “Herbicidal damage score, AMARE” value is 3; the “Herbicidal damage score, ECHCG” value was found to be 5. Also, in experiment [2], the “Herbicidal damage score, SETFA” value is listed as 5 and the “Herbicidal damage score, ZEAMX” value is on record as 3.

On to `CC1=C(Cl)C(=O)N(c2nn(C)c(C(C)(C)C)c2C#N)C1O` (stereo not drawn) [Compound D1], for which, in experiment [1], the “Pre-emergence herbicidal activity, damage score ABUTH” value was found to be 5; the “Pre-emergence herbicidal activity, damage score ALOMY” value is listed as 4; the “Pre-emergence herbicidal activity, damage score AMARE” value was 5; the “Pre-emergence herbicidal activity, damage score ECHCG” value turned out to be 4. Further, in experiment [1], the “Pre-emergence herbicidal activity, damage score SETFA” value came to 4 and the “Pre-emergence herbicidal activity, damage score ZEAMX” value was 2. Also, in experiment [2], the “Herbicidal damage score, ABUTH” value was determined as 5; the “Herbicidal damage score, ALOMY” value is listed as 4; the “Herbicidal damage score, AMARE” value was 5; the “Herbicidal damage score, ECHCG” value is reported as 5. In experiment [2], the “Herbicidal damage score, SETFA” value stood at 5 and the “Herbicidal damage score, ZEAMX” value is recorded as 3.

On to `CC1=C(Cl)C(=O)N(c2cc(C(C)(C)C)n(C)n2)C1OC(=O)OCC(C)C` (stereo not drawn) [Compound F1], for which, in experiment [1], the “Pre-emergence herbicidal activity, damage score ABUTH” value came out at 5; the “Pre-emergence herbicidal activity, damage score ALOMY” value is listed as 3; the “Pre-emergence herbicidal activity, damage score AMARE” value is on record as 5; the “Pre-emergence herbicidal activity, damage score ECHCG” value worked out at 5. Moreover, in experiment [1], the “Pre-emergence herbicidal activity, damage score SETFA” value came out at 4 and the “Pre-emergence herbicidal activity, damage score ZEAMX” value is on record as 2. In experiment [2], the “Herbicidal damage score, ABUTH” value came out at 5; the “Herbicidal damage score, ALOMY” value came to 5; the “Herbicidal damage score, AMARE” value is listed as 5; the “Herbicidal damage score, ECHCG” value worked out at 5. Moreover, in experiment [2], the “Herbicidal damage score, SETFA” value is 5 and the “Herbicidal damage score, ZEAMX” value is recorded as 5.

As for `CCOC(C)(CC)c1cc(N2C(=O)C(Cl)=C(C)C2O)nn1C` (stereo not drawn) [Compound B32], in experiment [1], the “Pre-emergence herbicidal activity, damage score ABUTH” value came to 5; the “Pre-emergence herbicidal activity, damage score ALOMY” value is 4; the “Pre-emergence herbicidal activity, damage score AMARE” value was 5; the “Pre-emergence herbicidal activity, damage score ECHCG” value is listed as 5. For the same molecule, in experiment [1], the “Pre-emergence herbicidal activity, damage score SETFA” value came out at 5 and the “Pre-emergence herbicidal activity, damage score ZEAMX” value is on record as 4. In experiment [2], the “Herbicidal damage score, ABUTH” value is 5; the “Herbicidal damage score, ALOMY” value was 5; the “Herbicidal damage score, AMARE” value is listed as 5; the “Herbicidal damage score, ECHCG” value stood at 5. In experiment [2], the “Herbicidal damage score, SETFA” value was found to be 5 and the “Herbicidal damage score, ZEAMX” value turned out to be 4.

As to `CC1=C(Cl)C(=O)N(c2nn(C)c(C(C)(C)C)c2Cl)C1O` (stereo not drawn) [Compound D3], in experiment [1], the “Pre-emergence herbicidal activity, damage score ABUTH” value is reported as 5; the “Pre-emergence herbicidal activity, damage score ALOMY” value amounted to 3; the “Pre-emergence herbicidal activity, damage score AMARE” value is on record as 5; the “Pre-emergence herbicidal activity, damage score ECHCG” value is given as 5. In experiment [1], the “Pre-emergence herbicidal activity, damage score SETFA” value is recorded as 5 and the “Pre-emergence herbicidal activity, damage score ZEAMX” value came to 4. In addition, in experiment [2], the “Herbicidal damage score, ABUTH” value is given as 5; the “Herbicidal damage score, ALOMY” value came out at 4; the “Herbicidal damage score, AMARE” value is 4; the “Herbicidal damage score, ECHCG” value was determined as 5. Further, in experiment [2], the “Herbicidal damage score, SETFA” value stood at 5 and the “Herbicidal damage score, ZEAMX” value is 4.

Regarding `CCC1CCCn2nc(N3C(=O)C(Cl)=C(C)C3O)cc21` (mixture of isomers) [Compound G5], in experiment [1], the “Pre-emergence herbicidal activity, damage score ABUTH” value came out at 5; the “Pre-emergence herbicidal activity, damage score ALOMY” value amounted to 3; the “Pre-emergence herbicidal activity, damage score AMARE” value was 5; the “Pre-emergence herbicidal activity, damage score ECHCG” value came out at 5. Also, in experiment [1], the “Pre-emergence herbicidal activity, damage score SETFA” value is on record as 4 and the “Pre-emergence herbicidal activity, damage score ZEAMX” value is 1. Moreover, in experiment [2], the “Herbicidal damage score, ABUTH” value was 5; the “Herbicidal damage score, ALOMY” value is given as 4; the “Herbicidal damage score, AMARE” value turned out to be 5; the “Herbicidal damage score, ECHCG” value is reported as 5. For the same molecule, in experiment [2], the “Herbicidal damage score, SETFA” value is listed as 5 and the “Herbicidal damage score, ZEAMX” value is 5.

Source of the values: US9605004B2, “Chemical compounds” (SYNGENTA LIMITED, priority 2013, dated 2017).
